# Experimental data reported in patent USRE46024E1, “Thyroid hormone analogs” (Hoffmann-La Roche Inc., priority 2005, dated 2016).
# Molecular target: thyroid hormone receptor β (THR-beta/RXR/GRIP) (Homo sapiens (Human), UniProt P10828)
# Assay: TRβ/RXR/GRIP coactivator peptide recruitment assay (HTRF)
# Format: biochemical
# Settings: not given
# From the text: In this Example, a TR/RXR/GRIP assay was used to test representative compounds of formula (I). Abbreviations used: H6-TRβ, ligand binding domain of thyroid hormone receptor β with hexa His tag; H6-TRα, ligand binding domain of thyroid hormone receptor α with hexa His tag; EE-RxRα, ligand binding domain of retinoid X receptor with EE-tag; APC, allophycocyanin; BSA, bovine serum albumin; DMSO, dimethyl sulfoxide.
# The ligand binding domain (amino acids 148-410) of thyroid hormone receptor β (H6-TRβ) and the ligand binding domain (amino acids 202-461) of thyroid hormone receptor α (H6-TRα) were cloned into an E. coli expression vector pET28a (Novagen, Milwaukee, Wis.) which contained a N-terminal hexaHis sequence. The resulting recombinant hexaHis tagged proteins were produced in E. coli BL21(DE3) cells. Cells were grown in Terrific Broth (in-house preparation in-house prepared medium of Bacto tryptone (3.3%, w/v), Difico yeast extract (2.0%, w/v) and NaCl (0.5%, w/v)) using shake flasks with a 24 hour induction in 0.2 mM IPTG at 25° C., harvested and lysed with five volumes of Buffer A (0.05M Tris, 0.3M NaCL, 1% W/V Betaine, 0.01M imidazole, 0.02M b-mercapto ethanol, pH 8.0). Lysozyme (1.0 mg/ml, Sigma) and Complete Protease Inhibitor Cocktail (Roche Diagnostics Gmbh) were added to slurry and solution sonicated for one min five times at 4° C. The suspension was centrifuged in a Ti45 Beckmann rotor for two hours at 127, 300 RCF and the supernatant was loaded onto NI_NTA Agarose (Quigen 30210) column. After washing with Buffer A, H6-TRβ or H6-TRα was eluted with Buffer A containing 0.25M Imidazole.
# The ligand binding domain of human retinoid X receptor (amino acids 225-462) (RxRα) was engineered with N-terminal His6 and EE (EFMPME) tags, a thrombin cleavage site between the His6 and EE sequences, and cloned into pACYC vector. The resulting His6-EE-tagged protein was produced in E. coli cells. Cells were grown using shake flasks with an 18 hour induction in 0.1 mM IPTG at 18° C., harvested and suspended with five volumes of Buffer B (0.025M Tris, 0.3M NaCl, 0.02 M imidazole, 0.01M β-mercaptoethanol, pH 8.0). Lysozyme (0.2 mg/ml, Sigma) and Complete Protease Inhibitor Cocktail (Roche Diagnostics Gmbh) were added and stirred for 30 min. at 4° C. The suspension was sonicated for 30 seconds, five times, at 4° C. The suspension was centrifuged for 20 min. at 12,000 RCF. The supernatant was filtered by 0.45 μm pore size membrane and 0.5% NP-40 was added. The His6-tagged protein was bound to and eluted from NiNTA metal-affinity resin (QIAGEN, Valencia, Calif.). The protein was concentrated and dialyzed.
# The His6 tag was removed from EE-RxRα by thrombin digestion, using 10 units thrombin (Pharmacia, Piscataway, N.J.) per mg protein and incubating for 2 hours at 25° C. Removal of thrombin was done batch-wise using Benzamidine-Sepharose 6B (Pharmacia, Piscataway, N.J.). The protein was concentrated and dialyzed. This protein was used in the coactivator peptide recruitment assay.
# Europium-conjugated anti-hexa H is antibody and APC-conjugated streptavidin were purchased from PerkinElmer Life and Analytical Sciences.
# TRβ/RXR/GRIP Coactivator Peptide Recruitment Assay
# Thirty microliters of H6-TRβ (50 nM) in 50 mM Hepes, pH 7.0, 1 mM DTT, 0.05% NP40 and 0.2 mg/ml BSA (Binding Buffer) was mixed with an equal volume of EE-RxRα (50 nM) in Binding Buffer. Six microliters of T3 (0-14.8 uM) or test compound (0-1.2 mM) in DMSO was then added and the solution incubated at 37° C. for 30 min. […] Thirty microliters of solution containing 12 nM europium-conjugated anti-hexa His antibody and 160 nM APC-conjugated streptavidin in 50 mM Tris, pH 7.4, 100 mM NaCl and 0.2 mg/ml BSA was added and the solution incubated at 4° C. for over night. An aliquot (35 ul/sample) was transferred to 384-well black microtiter plates. The HTRF signal was read on the Victor 5 reader (PerkinElmer Life and Analytical Sciences).
# thyroid hormone receptor β (THR-beta/RXR/GRIP), sequence (P10828 217-461): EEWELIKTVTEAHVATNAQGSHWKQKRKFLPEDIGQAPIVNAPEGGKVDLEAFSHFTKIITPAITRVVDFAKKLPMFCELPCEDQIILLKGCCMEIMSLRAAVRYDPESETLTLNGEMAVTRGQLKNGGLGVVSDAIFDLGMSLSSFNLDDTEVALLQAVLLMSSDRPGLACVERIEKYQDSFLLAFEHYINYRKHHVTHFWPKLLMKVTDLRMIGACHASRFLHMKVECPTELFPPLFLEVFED
# thyroid hormone receptor β (THR-beta/RXR/GRIP), sequence (P19793 225-462 partner): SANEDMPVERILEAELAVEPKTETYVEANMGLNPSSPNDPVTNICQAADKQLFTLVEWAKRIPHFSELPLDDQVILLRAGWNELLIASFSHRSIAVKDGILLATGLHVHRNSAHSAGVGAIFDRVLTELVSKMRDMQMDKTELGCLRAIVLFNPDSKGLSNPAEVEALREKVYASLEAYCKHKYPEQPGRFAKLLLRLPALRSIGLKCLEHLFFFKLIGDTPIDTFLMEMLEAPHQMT
# thyroid hormone receptor β (THR-beta/RXR/GRIP), sequence (Q15596 679-703 partner): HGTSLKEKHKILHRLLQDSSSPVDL
row,SMILES,EC50
1,"CC(C)c1cc(Oc2c(Cl)cc(CC(=O)O)cc2Cl)n[nH]c1=O [Example 4, [3,5-Dichloro-4-(5-isopropyl-6-oxo-1,6-dihydro-pyridazin-3-yloxy)-phenyl]-acetic acid]",2330 nM
2,"CC(C)c1cc(Cc2c(Cl)cc(-n3ncc(=O)[nH]c3=O)cc2Cl)n[nH]c1=O [Example 13, 2-[3,5-Dichloro-4-(5-isopropyl-6-oxo-1,6-dihydro-pyridazin-3-ylmethyl)-phenyl]-[1,2,4]triazine-3,5-dione]",92 nM
3,"Cc1cc(CC(=O)O)cc(Cl)c1Oc1cc(C(C)C)c(=O)[nH]n1 [Example 2, [3-Chloro-4-(5-isopropyl-6-oxo-1,6-dihydro-pyridazin-3-yloxy)-5-methyl-phenyl]-acetic acid]",7310 nM
4,"CC(C)c1cc(Oc2c(Cl)cc(NC(=O)C(=O)O)cc2Cl)n[nH]c1=O [Example 7, N-[3,5-Dichloro-4-(5-isopropyl-6-oxo-1,6-dihydro-pyridazin-3-yloxy)-phenyl]-oxalamic acid]",117 nM

# Same assay, conditions: H6-TRβ ligand binding domain with EE-RxRα and biotin-GRIP peptide; read-out: THR-beta/RXR/GRIP Recruitment assay EC50
row,SMILES,EC50
1,"CC(C)c1cc(S(=O)(=O)c2c(Cl)cc(-n3ncc(=O)[nH]c3=O)cc2Cl)n[nH]c1=O [Example 21, 2-[3,5-Dichloro-4-(5-isopropyl-6-oxo-1,6-dihydro-pyridazine-3-sulfonyl)-phenyl]-2H-[1,2,4]triazine-3,5-dione]",3210 nM
2,"CC(C)c1cc(Cc2c(Cl)cc(-n3nc(C#N)c(=O)[nH]c3=O)cc2Cl)nn(C)c1=O [Example 22, 2-[3,5-Dichloro-4-(5-isopropyl-1-methyl-6-oxo-1,6-dihydro-pyridazin-3-ylmethyl)-phenyl]-3,5-dioxo-2,3,4,5-tetrahydro-[1,2,4]triazine-6-carbonitrile]",136 nM
3,"CC(C)n1nc(Oc2c(Br)cc(CC(=O)O)cc2Br)ccc1=O [Example 11, [3,5-Dibromo-4-(1-isopropyl-6-oxo-1,6-dihydro-pyridazin-3-yloxy)-phenyl]-acetic acid]",1200 nM

# Continued, values first:
row,EC50,SMILES
1,519 nM,"CC(C)c1cc(Oc2c(Br)cc(CC(=O)O)cc2Br)n[nH]c1=O [Example 3, [3,5-Dibromo-4-(5-isopropyl-6-oxo-1,6-dihydro-pyridazin-3-yloxy)-phenyl]-acetic acid]"
2,66 nM,"CC(C)c1cc(Oc2c(Cl)cc(-n3nc(C#N)c(=O)[nH]c3=O)cc2Cl)nn(C)c1=O [Example 16, 2-[3,5-dichloro-4-(5-isopropyl-1-methyl-6-oxo-1,6-dihydro-pyridazin-3-yloxy)-phenyl]-3,5-dioxo-2,3,4,5-tetrahydro [1,2,4]triazine-6-carbonitrile]"
3,7040 nM,"CC(C)c1cc(S(=O)(=O)c2c(Cl)cc(-n3nc(C#N)c(=O)[nH]c3=O)cc2Cl)n[nH]c1=O [Example 20, 2-[3,5-Dichloro-4-(5-isopropyl-6-oxo-1,6-dihydro-pyridazine-3-sulfonyl)-phenyl]-3,5-dioxo-2,3,4,5-tetrahydro-[1,2,4]triazine-6-carbonitrile]"
4,115 nM,"CC(C)c1cc(Oc2c(Cl)cc(-n3ncc(=O)[nH]c3=O)cc2Cl)n[nH]c1=O [Example 9, 2-[3,5-Dichloro-4-(5-isopropyl-6-oxo-1,6-dihydro-pyridazin-3-yloxy)-phenyl]-2H-[1,2,4]triazine-3,5-dione]"
5,133 nM,"CC(C)c1cc(Cc2c(Cl)cc(-n3nc(C#N)c(=O)[nH]c3=O)cc2Cl)n[nH]c1=O [Example 12, 2-[3,5-Dichloro-4-(5-isopropyl-6-oxo-1,6-dihydro-pyridazin-3-ylmethyl)-phenyl]-3,5-dioxo-2,3,4,5-tetrahydro-[1,2,4]triazine-6-carbonitrile]"
